In patent US10538497B2, “Compounds as indoleamine 2,3-dioxygenase inhibitors” (Merck Sharp & Dohme Corp., priority 2015, dated 2020):

How the values were obtained:
[1] = molecular target: T1, IDO1 (Homo sapiens (Human), UniProt P14902); experiment: IDO1 Enzyme Assay; conditions: read-out: IDO1 Enzyme Assay, IC50; HIS-tagged recombinant IDO1, 40 nM
[2] = molecular target: T1, IDO1; experiment: IDO1 Cellular Assay in Hela Cells Stimulated with IFNγ; type: cell-based; conditions: Hela cells stimulated with IFNγ 100 ng/mL; read-out: IDO1 HELA Cell Assay, IC50
[3] = molecular target: T1, IDO1; experiment: IDO1 Cellular Assay in Frozen HEK293 Cells Transiently Transfected with Human IDO1; type: cell-based; conditions: HEK293 cells transiently transfected with human IDO1; read-out: IDO1 HEK293 Cell Assay, IC50
Procedure: IDO1 Cellular Assay in Frozen HEK293 Cells Transiently Transfected with Human IDO1
HEK293 cells were cultured in complete HEK293 culture medium (90% DMEM, 10% heat-inactivated fetal bovine serum). When reaching sub-confluent, the cells were trypsinized and neutralized with complete medium. […] Flag-IDO1 plasmid was added to the cell suspension at a concentration of 100 μg/mL. The cell-plasmid solutions were transferred to the OC-400 processing assembly (Maxcyte), 400 l/unit and the units were placed in a Maxcyte instrument to carry out flow electroporation for transfection. The cells were then transferred to a sterile 24-well cell culture plate to recover for 20-30 min at 37° C. in an incubator with 5% CO2.
Frozen HEK293/IDO1 and HEK293 WT cells were thawed and transferred into HEK293 assay medium (99% complete HEK293 culture medium, 1% Pen/Strep) with 20 mL medium/vial of cells. The cells were spun down at 250 g in a table top centrifuge for 5 min and suspended in same volume of HEK293 assay medium. […] Sterile L-tryptophan were added to the cells with final concentration of 300 μM.
HEK293/IDO1 and HEK293 WT cells were dispensed to the respective wells of 384-well assay plates containing the compounds. The plates were incubated for about 28-30 h at a 37° C., 5% CO2 incubator. […] The plates were centrifuged for 1 min at 200×g. The resulting fluorescence was measured in a Spectramax plate reader (Molecular Devices) with a 400 nm excitation filter and a 510 nm emission filter.

T1 sequence (P14902 whole entry): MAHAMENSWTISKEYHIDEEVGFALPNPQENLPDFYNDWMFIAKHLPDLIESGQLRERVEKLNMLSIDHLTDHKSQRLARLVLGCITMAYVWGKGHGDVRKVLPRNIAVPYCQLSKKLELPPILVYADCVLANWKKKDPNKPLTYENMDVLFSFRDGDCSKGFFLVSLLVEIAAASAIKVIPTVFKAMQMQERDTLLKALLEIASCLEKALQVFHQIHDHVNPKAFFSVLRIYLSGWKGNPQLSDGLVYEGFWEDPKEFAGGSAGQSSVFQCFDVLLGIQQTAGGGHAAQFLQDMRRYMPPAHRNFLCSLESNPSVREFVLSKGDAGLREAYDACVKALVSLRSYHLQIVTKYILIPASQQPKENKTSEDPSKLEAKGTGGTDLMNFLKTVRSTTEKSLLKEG

Row | Structure (SMILES) | IC50 [1] | IC50 [2] | IC50 [3]
1 | O=P(O)(O)CCSc1nonc1/C(=N/O)Nc1ccc(F)c(Br)c1 [Example 8, (Z)-(2-((4-(N-(3-Bromo-4-fluorophenyl)-N′-hydroxycarbamimidoyl)-1,2,5-oxadiazol-3-yl)thio)ethyl)phosphonic acid] | 107 nM | 7950 nM | 6360 nM
2 | CC(C)OC(=O)OCOP(=O)(O)CCSc1nonc1/C(=N/O)Nc1ccc(F)c(Br)c1 [Example 9, (Z)-(((2-((4-(N-(3-bromo-4-fluorophenyl)-N′-hydroxycarbamimidoyl)-1,2,5-oxadiazol-3-yl)thio)ethyl)(hydroxy)phosphoryl)oxy)methyl isopropyl carbonate] | 197 nM | 5060 nM | 5120 nM
3 | CC(C)OC(=O)OCOP(=O)(CCSc1nonc1/C(=N/O)Nc1ccc(F)c(Br)c1)OCOC(=O)OC(C)C [Example 10, (Z)-(((2-((4-(N-(3-bromo-4-fluorophenyl)-N′-hydroxycarbamimidoyl)-1,2,5-oxadiazol-3-yl)thio)ethyl)phosphoryl)bis(oxy))bis(methylene) diisopropyl bis(carbonate)] | 136 nM | 4160 nM | > 10000 nM
4 | CC(=O)NCCSc1nonc1/C(=N/O)Nc1ccc(F)c(Br)c1 [Example 11, (Z)—N-(2-((4-(N-(3-Bromo-4-fluorophenyl)-N′-hydroxycarbamimidoyl)-1,2,5-oxadiazol-3-yl)thio)ethyl)acetamide] | 27.7 nM | 9.3 nM | 22.2 nM
5 | CCOC(=O)CCSc1nonc1/C(=N/O)Nc1ccc(F)c(Br)c1 [Example 13, Ethyl (Z)-3-((4-(N-(3-bromo-4-fluorophenyl)-N′-hydroxycarbamimidoyl)-1,2,5-oxadiazol-3-yl)thio)propanoate] | 86.1 nM | 6120 nM | 4490 nM
6 | O=C(O)CSc1nonc1/C(=N/O)Nc1ccc(F)c(Br)c1 [Example 15, (Z)-2-((4-(N-(3-bromo-4-fluorophenyl)-N′-hydroxycarbamimidoyl)-1,2,5-oxadiazol-3-yl)thio)acetic acid] | 105 nM | > 10000 nM | > 10000 nM
7 | CC(O)CSc1nonc1/C(=N/O)Nc1ccc(F)c(Br)c1 (stereo not drawn) [Example 18, (Z)-N-(3-bromo-4-fluorophenyl)-N′-hydroxy-4-((2-hydroxypropyl)thio)-1,2,5-oxadiazole-3-carboximidamide] | 58.4 nM | 87.9 nM | 64.2 nM
8 | OCCCSc1nonc1/C(=N/O)Nc1ccc(F)c(Br)c1 [Example 19, (Z)-N-(3-bromo-4-fluorophenyl)-N′-hydroxy-4-((3-hydroxypropyl)thio)-1,2,5-oxadiazole-3-carboximidamide] | 71.9 nM | 39.7 nM | 39.7 nM
9 | OCCCCSc1nonc1/C(=N/O)Nc1ccc(F)c(Br)c1 [Example 20, (Z)-N-(3-bromo-4-fluorophenyl)-N′-hydroxy-4-((4-hydroxybutyl)thio)-1,2,5-oxadiazole-3-carboximidamide] | 67.7 nM | 65.3 nM | 56 nM
10 | CCCSc1nonc1/C(=N/O)Nc1ccc(F)c(Br)c1 [Example 23, (Z)-N-(3-bromo-4-fluorophenyl)-N′-hydroxy-4-(propylthio)-1,2,5-oxadiazole-3-carboximidamide] | 187 nM | 154 nM | 263 nM
11 | CCSc1nonc1/C(=N/O)Nc1ccc(F)c(Br)c1 [Example 24, (Z)-N-(3-bromo-4-fluorophenyl)-4-(ethylthio)-N′-hydroxy-1,2,5-oxadiazole-3-carboximidamide] | 154 nM | 62.8 nM | 133 nM
12 | O/N=C(\Nc1ccc(F)c(Br)c1)c1nonc1SCC1CNC1 [Example 25, (Z)-4-((azetidin-3-ylmethyl)thio)-N-(3-bromo-4-fluorophenyl)-N′-hydroxy-1,2,5-oxadiazole-3-carboximidamide] | 92.2 nM | 150 nM | 152 nM
13 | O/N=C(\Nc1ccc(F)c(Br)c1)c1nonc1SC1CNC1 [Example 26, (Z)-4-(azetidin-3-ylthio)-N-(3-bromo-4-fluorophenyl)-N′-hydroxy-1,2,5-oxadiazole-3-carboximidamide] | 74.8 nM | 104 nM | 174 nM
14 | O=c1[nH]nc(CSc2nonc2/C(=N/O)Nc2ccc(F)c(Br)c2)[nH]1 [Example 34, N-(3-bromo-4-fluorophenyl)-N′-hydroxy-4-(((5-oxo-4,5-dihydro-1H-1,2,4-triazol-3-yl)methyl)thio)-1,2,5-oxadiazole-3-carboximidamide] | 64.9 nM | 40.2 nM | 188 nM
15 | CN1C(=O)NC[C@@H]1CSc1nonc1/C(=N/O)Nc1ccc(F)c(Br)c1 [Example 43, (R)—N-(3-bromo-4-fluorophenyl)-N′-hydroxy-4-(((3-methyl-2-oxoimidazolidin-4-yl)methyl)thio)-1,2,5-oxadiazole-3-carboximidamide] | 53.3 nM | 118 nM | 78.5 nM
16 | NS(=O)(=O)NCCSc1nsnc1/C(=N/O)Nc1ccc(F)c(Br)c1 [Example 47, N-(3-bromo-4-fluorophenyl)-N′-hydroxy-4-((2-(sulfamoylamino)ethyl)thio)-1,2,5-thiadiazole-3-carboximidamide] | 439 nM | 245 nM | 290 nM
17 | COC(=O)[C@@H](N)CSc1nonc1/C(=N/O)Nc1ccc(F)c(Br)c1 [Example 48, methyl S-{4-[N-(3-bromo-4-fluorophenyl)-N′-hydroxycarbamimidoyl]-1,2,5-oxadiazol-3-yl}-L-cisteinate] | 170 nM | 648 nM | 226 nM
18 | CC(=O)NCCSc1nonc1/C(=N/O)Nc1ccc(F)c(C(F)(F)F)c1 [Example 49, N-{2-[(4-{N-[4-fluoro-3-(trifluoromethyl)phenyl]-N′-hydroxycarbamimidoyl}-1,2,5-oxadiazol-3-yl)sulfanyl]ethyl}acetamide] | 65.3 nM | 11.9 nM | 31.7 nM
19 | OCCSc1nonc1/C(=N/O)Nc1ccc(F)c(C(F)(F)F)c1 [Example 50, N-[4-fluoro-3-(trifluoromethyl)phenyl]-N′-hydroxy-4-[(2-hydroxyethyl)sulfanyl]-1,2,5-oxadiazole-3-carboximidamide] | 99.5 nM | 45.7 nM | 67.5 nM
20 | CC(=O)NCCSc1nonc1/C(=N/O)Nc1ccc(F)c(C)c1 [Example 51, N-[2-({4-[N-(4-fluoro-3-methylphenyl)-N′-hydroxycarbamimidoyl]-1,2,5-oxadiazol-3-yl}sulfanyl)ethyl]acetamide] | 113 nM | 48.1 nM | 106 nM
21 | CC(=O)NCCSc1nonc1/C(=N/O)Nc1ccc(F)c(OC(F)(F)F)c1 [Example 52, N-{2-[(4-{N-[4-fluoro-3-(trifluoromethoxy)phenyl]-N′-hydroxycarbamimidoyl}-1,2,5-oxadiazol-3-yl)sulfanyl]ethyl}acetamide] | 356 nM | 144 nM | 177 nM
22 | OCCCCCCSc1nonc1/C(=N/O)Nc1ccc(F)c(Br)c1 [Example 53, N-(3-bromo-4-fluorophenyl)-N′-hydroxy-4-[(6-hydroxyhexyl)sulfanyl]-1,2,5-oxadiazole-3-carboximidamide] | 98.5 nM | 683 nM | 786 nM
